In brackets after ≈: the same amount, converted by molar mass.
Tests used:
A498 = experiment: Cytotoxicity against human A498 cells after 7 days by MTT assay; assay type: functional; settings: for EC50: Homo sapiens, A498, 168 h, read-out: ED50 (the source's name)
PC-3 = experiment: Cytotoxicity against human PC3 cells after 7 days by MTT assay; assay type: functional; settings: for EC50: Homo sapiens, PC-3, 168 h, read-out: ED50 (the source's name)
Artemia salina = experiment: (§1) Toxicity in Artemia salina; assay type: organism-based; settings: in vivo
MCF7 = experiment: Cytotoxicity against human MCF7 cells after 7 days by MTT assay; assay type: functional; settings: for EC50: Homo sapiens, MCF7, 168 h, read-out: ED50 (the source's name)
A549 = experiment: Cytotoxicity against human A549 cells after 7 days by MTT assay; assay type: functional; settings: for EC50: Homo sapiens, A549, 168 h, read-out: ED50 (the source's name)
HT-29 = experiment: Cytotoxicity against human HT-29 cells after 7 days by MTT assay; assay type: functional; settings: for EC50: Homo sapiens, HT-29, 168 h, read-out: ED50 (the source's name)
MIA PaCa-2 = experiment: Cytotoxicity against human MIAPaCa2 cells after 7 days by MTT assay; assay type: functional; settings: for EC50: Homo sapiens, MIA PaCa-2, 168 h, read-out: ED50 (the source's name)
[1] = as §1; assay type: organism-based; settings: in vivo, read-out: ED50 (the source's name)

| SMILES | EC50 (A498) [mg/L] | EC50 (PC-3) [mg/L] | ED50 (Artemia salina) [×10⁻² ug/ml] | EC50 (MCF7) [mg/L] | EC50 (A549) [mg/L] | ED50 (HT-29) | EC50 (MIA PaCa-2) [mg/L] | ED50 (A498) [mg/L] | ED50 (PC-3) [mg/L] | LC50 [1] [mg/L] | ED50 (MCF7) [mg/L] | ED50 (A549) [mg/L] | ED50 (MIA PaCa-2) [mg/L] | EC50 (HT-29) [mg/L] |
| --- | --- | --- | --- | --- | --- | --- | --- | --- | --- | --- | --- | --- | --- | --- |
| CCCCCCCCCC[C@H](O)[C@H]1CC[C@H]([C@H]2CC[C@H]([C@H](O)CCCC[C@H](O)CCCCC[C@@H](O)CC3=C[C@H](C)OC3=O)O2)O1 [ANNOGLAUCIN] | 1.01 (≈ 1.58 µM) | 0.356 (≈ 0.557 µM) | 2.2 | 1.56 (≈ 2.44 µM) | 1.08 (≈ 1.69 µM) | 1 ×10⁻⁷ ug/ml | 1.45 (≈ 2.27 µM) | – | – | – | – | – | – | – |
| CCCCCCCCCCCC[C@@H](O)[C@H]1CC[C@H]([C@H](O)CCCC[C@H](O)CCCCC[C@@H](O)CC2=CC(C)OC2=O)O1 (some centres undefined) [ANNONACIN] | – | – | – | – | – | 1.18 µg/mL (≈ 1.98 µM) | – | 1.16 (≈ 1.94 µM) | 1.33 (≈ 2.23 µM) | 0.46 (≈ 0.771 µM) | 1.96 (≈ 3.28 µM) | 1.32 (≈ 2.21 µM) | 1.9 (≈ 3.18 µM) | – |
| COc1cccc2c1C(=O)c1c(O)c3c(c(O)c1C2=O)C[C@@](O)(C(=O)CO)C[C@@H]3O[C@H]1C[C@H](N)[C@H](O)[C@H](C)O1 [DOXORUBICIN] | 0.00198 (≈ 0.00364 µM) | 0.0227 (≈ 0.0418 µM) | – | 0.212 (≈ 0.39 µM) | 0.00367 (≈ 0.00675 µM) | – | 0.00145 (≈ 0.00267 µM) | – | – | – | – | – | – | 0.00966 (≈ 0.0178 µM) |
| CCCCC[C@H](O)[C@H](O)CCC[C@H](O)[C@H]1CC[C@H]([C@H]2CC[C@H]([C@H](O)CCCCCCCCCCCCC3=C[C@H](C)OC3=O)O2)O1 [PURPUREDIOLIN] | 1.36 (≈ 2.13 µM) | 0.353 (≈ 0.552 µM) | 7 | 0.916 (≈ 1.43 µM) | 0.443 (≈ 0.693 µM) | 1 ×10⁻⁷ ug/ml | 1.44 (≈ 2.25 µM) | – | – | – | – | – | – | – |
| CCCCC[C@H](O)CCCC[C@H](O)[C@H]1CC[C@H]([C@H]2CC[C@H]([C@H](O)CCCC[C@H](O)CCCCCCCC3=C[C@H](C)OC3=O)O2)O1 [PURPURENIN] | 1.25 (≈ 1.96 µM) | 1.07 (≈ 1.67 µM) | 2.9 | 1.67 (≈ 2.61 µM) | 1.29 (≈ 2.02 µM) | – | 1.98 (≈ 3.1 µM) | – | – | – | – | – | – | 0.316 (≈ 0.495 µM) |

From ChEMBL document CHEMBL1150876, “Purpurediolin and purpurenin, two new cytotoxic adjacent bis-tetrahydrofuran annonaceous acetogenins from the seeds of Annona purpurea” (J Nat Prod, 1998)
